What was measured:
Coxsackievirus B3-H3 = assay: Virus CPE assay, CVB3-H3 in HeLa-RW cells; type: cell-based; details: >10/>25 = no antiviral activity at 10 or 25 μM
Poliovirus 1 = assay: microbe, parasite or virus in culture; type: cell-based; details: Enterovirus C, read-out: EC50 PV1
Poliovirus 3 = assay: microbe, parasite or virus in culture; type: cell-based; details: Enterovirus C, read-out: EC50 PV3
Coxsackievirus B1 = assay: Virus CPE assay, CVB1 in HeLa-RW cells; type: cell-based; details: Enterovirus B, >10 = no antiviral activity at 10 μM
Coxsackievirus B2 = assay: Virus CPE assay, CVB2 in HeLa-RW cells; type: cell-based; details: Enterovirus B, >10 = no antiviral activity at 10 μM
Coxsackievirus B4 = assay: Virus CPE assay, CVB4 in HeLa-RW cells; type: cell-based; details: Enterovirus B, >10 = no antiviral activity at 10 μM
Coxsackievirus B5 = assay: Virus CPE assay, CVB5 in HeLa-RW cells; type: cell-based; details: Enterovirus B, >10 = no antiviral activity at 10 μM
Enterovirus 71 = assay: Virus CPE assay, EV71 in LLC cells; type: cell-based; details: Enterovirus A, >10 = no antiviral activity at 10 μM
Coxsackievirus A9 = assay: Virus CPE assay, COX A9 in LLC cells; type: cell-based; details: Enterovirus B, >10 = no antiviral activity at 10 μM
Echovirus 6 = assay: Virus CPE assay, ECHO06 in LLC cells; type: cell-based; details: Enterovirus B, >10 = no antiviral activity at 10 μM
Echovirus 7 = assay: Virus CPE assay, ECHO07 in LLC cells; type: cell-based; details: Enterovirus B, >10 = no antiviral activity at 10 μM
Echovirus 9 = assay: Virus CPE assay, ECHO09 in LLC cells; type: cell-based; details: Enterovirus B, >10 = no antiviral activity at 10 μM
Echovirus 11 = assay: Virus CPE assay, ECHO11 in LLC cells; type: cell-based; details: Enterovirus B, >10 = no antiviral activity at 10 μM
Echovirus 25 = assay: Virus CPE assay, ECHO25 in LLC cells; type: cell-based; details: Enterovirus B, >10 = no antiviral activity at 10 μM
Echovirus 30 = assay: Virus CPE assay, ECHO30 in LLC cells; type: cell-based; details: Enterovirus B, >10 = no antiviral activity at 10 μM
HeLa-RW cells = assay: Cytotoxicity (CC50) in HeLa-RW cells; type: cell-based; details: concentration that reduces host cell viability by 50%
Procedure: (§1) Each compound is initially tested against each virus at 10 μM in a virus CPE assay. A compound that is active against a virus, protecting the cells from CPE, is further evaluated for its 50% effective concentration (EC50) value and 50% cytotoxicity concentration (CC50) value. Serial 2-fold dilutions of an active compound are prepared. For EC50 value determination, a 7-point dose-response curve is constructed using a virus CPE assay and EC50 value is estimated using four parameter model or sigmoidal model. For CC50 value determination, cells are incubated with serial 2-fold dilutions of a compound for the same period as the virus CPE assay, and then cells were fixed, stained and read as in the virus CPE assay.
(§2) Table 3 provides the compound concentration in μM units that reduces cell viability of the host cell by 50% (CC50) for certain compounds of the present technology for HeLa-RW and LLC cells. Blank cells indicate that the cytotoxicity assessment is not yet complete.

LLC cells = assay: Cytotoxicity (CC50) in LLC cells; type: cell-based; details: concentration that reduces host cell viability by 50%
Procedure: as §1, §2

[1] = system: Enterovirus D68 strain Fermon; assay: Virus CPE assay, Enterovirus D68 Fermon in RD cells; type: cell-based; details: Enterovirus D
Procedure: (§3) Cells growing in 96 well plates are infected with a given virus at given low multiplicities of infection pre-determined to result in 100% cytopathic effects (CPE) in the cultures after 3-4 days incubation. Cultures are monitored daily for microscopic signs of typical CPE: rounding of cells and detachment. […] Dead cells and debris are washed out and the remaining blue stain intensity in each well is quantified by spectrophotometry at a wavelength of 590 nm (OD590) as a measurement of viability. […] Serial 2-fold dilutions of an active compound are prepared. […] Table 4 provides the results of cell-based assays with RD cells evaluating the antiviral activities of certain representative compounds of the present technology with certain strains of Enterovirus D68, namely strains Fermon (“D68/Fermon”), US/Mo/14-18949 (“D68/US/Mo/14-18949”), and US/KY/14-18953 (“D68/US/KY/14-18953”). The values indicated in the strain columns are EC50 values in μM units. The CC50 values (in μM units) for RD cells are also provided for evaluation of SI50.

[2] = system: Enterovirus D68 strain US/Mo/14-18949; assay: Virus CPE assay, Enterovirus D68 US/Mo/14-18949 in RD cells; type: cell-based; details: for EC50: Enterovirus D, RD cells
Procedure: as §3

[3] = system: Enterovirus D68 strain US/KY/14-18953; assay: Virus CPE assay, Enterovirus D68 US/KY/14-18953 in RD cells; type: cell-based; details: Enterovirus D
Procedure: as §3

[4] = Cytotoxicity (CC50) in RD cells; type: cell-based; details: human
Procedure: as §1
Table 4 provides the results of cell-based assays with RD cells evaluating the antiviral activities of certain representative compounds of the present technology with certain strains of Enterovirus D68, namely strains Fermon (“D68/Fermon”), US/Mo/14-18949 (“D68/US/Mo/14-18949”), and US/KY/14-18953 (“D68/US/KY/14-18953”). The values indicated in the strain columns are EC50 values in μM units. The CC50 values (in μM units) for RD cells are also provided for evaluation of SI50.

[5] = Cytotoxicity (CC50) in LLC cells; type: cell-based; details: LLC cells; concentration that reduces host cell viability by 50%
Procedure: as §1, §2

Enterovirus D68 = assay: Antiviral cell-based assays, summary for at least one strain; details: Enterovirus D, not named, read-out: EC50 against at least one strain
Procedure: as §3

Compound | EC50 (Coxsackievirus B3-H3) [µM] | EC50 (Poliovirus 1) [µM] | EC50 (Poliovirus 3) [µM] | EC50 (Coxsackievirus B1) [µM] | EC50 (Coxsackievirus B2) [µM] | EC50 (Coxsackievirus B4) [µM] | EC50 (Coxsackievirus B5) [µM] | EC50 (Enterovirus 71) [µM] | EC50 (Coxsackievirus A9) [µM] | EC50 (Echovirus 6) [µM] | EC50 (Echovirus 7) [µM] | EC50 (Echovirus 9) [µM] | EC50 (Echovirus 11) [µM] | EC50 (Echovirus 25) [µM] | EC50 (Echovirus 30) [µM] | CC50 (HeLa-RW cells) [µM] | CC50 (LLC cells) [µM] | EC50 [1] [µM] | EC50 [3] [µM] | CC50 [4] [µM] | further results
CC(C)n1ncc2c(C(=O)Nc3ccccc3F)cc(-c3cccs3)nc21 [JX-001, reference compound] | 1.4 ± 0.6 | 7 | 7 | 2.4 ± 0.2 | 2.8 ± 0.4 | 2.3 | 2.3 | 2.3 ± 1.2 | 2.6 ± 0.9 | 2.3 ± 0.9 | 2.4 | 2.1 ± 1.2 | 1.5 ± 0.4 | 3 | 1.2 | 12.5 | 50 | 0.35 ± 0.05 | 0.5 ± 0.17 | 200 | EC50 [2]: 0.33 ± 0.05 µM
CC(C)n1nnc2c(C(=O)Nc3ccc(F)cc3)cc(-c3cccs3)nc21 [JX-035] | > 10 | > 10 | > 10 | > 10 | > 10 | > 10 | > 10 | > 10 | > 10 | > 10 | > 10 | > 10 | > 10 | > 10 | > 10 |  |  |  |  |  | 
CC(C)n1ncc2c(C(=O)Nc3ccc(F)cc3)nc(-c3cccs3)nc21 [JX-036] | > 10 | > 10 | > 10 | > 10 | > 10 | > 10 | > 10 | > 10 | > 10 | > 10 | > 10 | > 10 | > 10 | > 10 | > 10 |  |  |  |  |  | 
CC(C)n1ccc2c(C(=O)Nc3ccc(F)cc3)cc(-c3cccs3)nc21 [JX-037] | 3.1 ± 0.1 | > 25 | > 25 | 3.6 ± 0.6 | 3.6 ± 0.6 | 3.1 ± 0.1 | 2.7 ± 0.6 | 2.2 |  |  |  |  |  |  |  |  |  | 0.86 ± 0.31 | 1.1 ± 0.3 | > 200 | CC50 [5]: 100 µM; SI ([2]; Enterovirus D68/US/Mo/14-18949, >200/0.57): over 350; EC50 [2]: 0.57 ± 0.15 µM; EC50 (Enterovirus D68): < 1 µM
CC(C)n1ccc2c(C(=O)Nc3cccnc3)cc(-c3cccs3)nc21 [JX-062] | 1.3 | > 10 | > 10 | 1.2 | 1.2 | 1.2 | 1.2 | 0.8 |  |  |  | 0.4 | 1.2 |  |  | 18 | 25 | 0.16 ± 0.03 | 0.26 ± 0.07 | 25 | EC50 [2]: 0.13 ± 0.03 µM; EC50 (Enterovirus D68): < 1 µM
CC(C)n1ccc2c(C(=O)Nc3ccncc3)cc(-c3cccs3)nc21 [JX-063] | > 10 | > 10 | > 10 | > 10 | > 10 | > 10 | > 10 |  |  |  |  |  |  |  |  |  |  |  |  |  | 
CC(C)n1ccc2c(C(=O)Nc3ccccn3)cc(-c3cccs3)nc21 [JX-072] | 2.2 ± 0.4 | > 10 | > 10 | 1.56 | 2.33 |  |  | 1.2 |  |  | 3 |  |  |  |  | 18.8 | > 200 | < 0.4 | 0.6 | 25 | EC50 (Enterovirus D68): < 1 µM

Reference: patent publication US11180498B2, “Substituted pyrrolo[2,3-b]pyridines, pyrazolo[3,4-d]pyrimidines and [1,2,3]triazolo[4,5-b]pyridines as potent antivirals” (The Regents of the University of California, priority 2017, dated 2021)
